Data: patent publication US9759709B1, “Devices and methods to monitor HIV-infection in presence of substance of abuse and/or therapeutic agent” (THE FLORIDA INTERNATIONAL UNIVERSITY BOARD OF TRUSTEES, priority 2016, dated 2017)
Counter-ions that a name gives are not always drawn.

How the values were obtained:
Assay type in all cases: cell-based
human astrocytes (HA) [1] = experiment: EIS measurement of charge transfer resistance (Rct) of HA grown on IDE-Au cultureware chip
Method: A cultureware chip (CC) comprising eight wells was procured from Applied Biophysics (#8WCP PET arrays) and used to grow HA for HIV infection and subsequent drug treatments. Each well (substrate area of 0.8 cm^2 and maximum volume of 600 μL) of the CC comprised a sensing substrate configured to have gold-based IDE (IDE-Au; surface area: 3.985 mm^2). In each well and on the sensing substrate, the IDE-Au array was useful to grow a large number of cells (e.g., approximately between 4000 and 8000) and designed in such a way to perform electrochemical measurements without fluctuation.
EIS was conducted in 400 μL of 5 mM PBS (pH 7.4) comprising 5 mM Fe (II)/Fe(III) as redox moieties using VMP3, a multi-channel potentiostat/galvanostats obtained from BioLogic Instruments. Each EIS measurement was made in sets of triplet and an average was used for analytical interpretation. Before processing the CC for cell culture, EIS measurement was made on […] each well. […] The cyclic voltammetry (CV) studies were also performed on CC using identical experimental conditions to validate results obtained using EIS.
A portion of the Nyquist plot of cells grown on IDE-Au takes on a semicircle shape at higher frequency that corresponds to the electron-transfer limited process. The […] of this semicircle represents the charge transfer resistance, Rct, of the system. The semicircle is followed by a linear portion of the curve (45° to the axes) corresponding to the diffusion-controlled electron transfer process (Kaushik et al. 2010).
For a biological system, the Rct value […] intra/extracellular cell properties, such as the electrical and physical properties of the HA. As a result, Rct was selected as the parameter for the assessment of HIV infection in HA and on treatments with Coc and drugs specific to both HIV and Coc. The EIS was performed on HA as a function of HIV infection doses which varies from 10 ng/mL to 30 ng/mL (FIG. 2A (b)).
(§1) Primary HA were grown in the eight-well CC plate at a concentration of approximately 8,000 cells and infected with different concentrations (ranging from 10 ng/mL to 30 ng/mL) of HIV-1 using a previously described protocol (Atluri et al. 2013; Eugenin and Berman 2007). Each well was used for a separate treatment.
After overnight infection, unabsorbed virus was washed away using PBS (pH 7.4), and the infected cells were cultured for 5 days in the presence or absence of Coc (1 μM). RA (2 μM) was added to the designated wells (specific to Coc) 2 h before each treatment involving Coc. The optimized dose of Coc selected for this study was 1 μM, which was based on our dose response study for cytotoxicity and HIV infectivity (Roy et al. 2015).
On the 5th day, 100 μg (100 μL of 1 mg/mL) of Tef was added to wells specific to HIV and incubated for 7 days in total. The dose of Tef was selected on the basis of its toxicity and efficacy as reported in our previous publication (Jayant et al. 2015).
To evaluate variations in HIV infection as a function of the Rct value (FIGS. 3A-3D) measured using EIS, an experiment was planned in 9 wells as described in FIGS. 3A-3D.

human astrocytes (HA) [2] = experiment: MTT cell viability assay; conditions: HA treated with Coc (1 μM), 7 days
Method: The MTT cell viability assay was examined using a modified assay method as described by Rao et al (Kurapati et al. 2012). After 7 days of HIV-infection and/or treatment with an optimum concentration of Coc (1 μM), 6-well plates were given media change with 1 mL of medium. Then, 100 μL of MTT (100 mg MTT/20 ml PBS) was added to each well and the wells were incubated for 3 h at 37° C. Further, one volume of stop mix solution was added to each well. The plates were then rocked for about 2 h and centrifuged.
The optical density of the solubilized formazan was determined spectrophotometrically measuring the absorbance at 550 nm after transferring into the 96-well plate. The optical density of formazan in each well is directly proportional to the cell viability and utilized for calculations.
Considering cell viability as a major factor, HA toxicity was evaluated in terms of cell viability as a function of levels of HIV infection ranging from 10 ng/mL to 30 ng/mL using MTT assay.

HIV-1Ba-L (clade B) = experiment: p24 antigen estimation by ELISA (level of HIV infection in HA)
From the text: Primary HA were purchased from ScienCell Research Laboratories (Carlsbad, Calif.; Cat. #1800-5) and grown in astrocyte medium purchased from ScienCell Laboratories (Cat. #1801) comprising 2% of fetal bovine serum (ScienCell Cat. #0010), astrocyte growth supplement (ScienCell Cat. #1852), and penicillin/streptomycin (ScienCell Cat. #0503). HIV-1Ba-L (clade B) (NIH AIDS Reagent Program Cat. #510) was obtained through AIDS Research and Reference Reagent Program, Division of AIDS, NIAID, NIH. The Cocaine hydrochloride-Sigma (Cat# C5776), rimcazole dihydrochloride-Tocris (1497, CAS#75859-03-9), and tenofovir disoproxil fumarate-Sigma (1643656; CAS #202138-50-9) were also obtained for this research.
as §1, with “treatment. […]” for “treatment.”
450 μl of undiluted HA culture supernatant was mixed with 50 μL of lysing buffer. […] After incubation, 100 μL of stop solution was added to each well and the optical density of each well was read at 450 nm using a microplate reader (Yndart et al. 2015). […]

COC(=O)[C@H]1[C@@H](OC(=O)c2ccccc2)C[C@@H]2CC[C@H]1N2C [Coc, cocaine]
Rct (human astrocytes (HA) [1]; HA+Coc (1 μM), normal HA 48): 21 KS | Rct (human astrocytes (HA) [1]; HA+HIV+Coc): 140 KS | cell viability (human astrocytes (HA) [2]): ~85%

C[C@@H]1CN(CCCn2c3ccccc3c3ccccc32)C[C@H](C)N1 [RA, rimcazole dihydrochloride]
Rct (human astrocytes (HA) [1]; HA+Coc+RA (2 μM)): 34 KΩ | Rct (human astrocytes (HA) [1]; HA+HIV+Coc+RA): 105 KΩ | level of HIV infection (p24 antigen) (HIV-1Ba-L (clade B); HIV-infected HA with Coc and RA (2 μM) vs cells treated with HIV and Coc alone): not statistically significant

CC(C)OC(=O)OCOP(=O)(CO[C@H](C)Cn1cnc2c(N)ncnc21)OCOC(=O)OC(C)C.O=C(O)/C=C/C(=O)O [Tef, tenofovir disoproxil fumarate]
Rct (human astrocytes (HA) [1]; HA+HIV+Coc+Tef): 93 KS | Rct (human astrocytes (HA) [1]; HIV-infected HA (20 ng/mL) after Tef, HA+HIV without drug 210): 150 KΩ | level of HIV infection (p24 antigen) (HIV-1Ba-L (clade B); HIV-infected HA treated with Tef (100 μg) vs HIV-infected cells alone): significant reduction
